Data as given in patent US10766890B2, “Hepatitis B core protein modulators” (Assembly Biosciences, Inc., priority 2015, dated 2020).

Key:
HBV = experiment: Viral load production in AD38 cells, quantitative PCR of the core sequence in supernatant; assay type: cell-based; conditions: 10 μM compound, 6 days at 37° C., supernatant qPCR vs DMSO control; for activity at 10 µM: Hepatitis B virus, 144 h, read-out: AD38 Viral Load (%) (VL with cmpd/VL in DMSO control) at 10 μM
Description: (§1) Example 63: Assay Measuring Activity of Compounds on Viral Production in and on Viability of AD38 Cells
(§2) AD38 cells were then re-suspended with 10 mL of Treatment Medium and counted. Wells of a collagen coated 96-well NUNC microtiter plate were seeded at 50,000/well in 180 μL of Treatment Medium, and 20 μL of in treatment media with either 10% DMSO (Control) or a 10× solution of compound in 10% DMSO was added. Plates were incubated for 6 days at 37° C.
Viral load production was assayed by quantitative PCR of the core sequence. […] The PCR mixture was incubated at 45° C. for 5 minutes, then 95° C. for 10 min, followed by 40 cycles of 10 seconds at 95° C. and 20 seconds at 60° C. Viral load was quantitated against known standards by using ViiA™ 7 Software. Viral load in the supernatant from wells with treated cells were compared against viral load in supernatant from DMSO control wells (≥3 per plate).

AD38 cells = experiment: Viability of AD38 cells, Promega CellTiter-Glo; assay type: cell-based; conditions: 10 μM compound, 6 days, CellTiter-Glo luminescence, controls being 100%
Description: as §1, §2
At the end of compound treatment period cell viability was assessed using a Promega CellTiter-Glo protocol. All supernatant was removed the previously treated 96-well microtiter plate, and 50 μL Tetracycline-free treatment medium (DMEM/F12 (1:1), 1×Pen/step (cat#: 30-002-CL, Mediatech, Inc), with 2% FBS, Tet-system approved (cat#: 631106, Clontech), and 1% DMSO was added back to each well. Another 50 μL of CellTiter-Glo reagent solution (Promega, G7573) was then added at room temperature and the contents mixed for 2 minutes on an orbital shaker to induce cell lysis. This was followed by incubation at room temperature for 10 minutes to stabilize the luminescent signal. The luminescence was recorded for 0.2 seconds per well on a Tecan multimode platereader (Infinite M1000 pro). The luminescent signal from each well was normalized against that of untreated (DMSO) control wells. All results in Table 3 were reported with percent viability (with controls being 100%).

SMILES: O=C(NCCCCOc1ccc(CCNC(=O)c2ccc3c(c2)NC(=O)c2ccccc2S3(=O)=O)cc1)OCc1ccccc1 [Compound 481]
- activity at 10 µM (HBV): 0.5%
- AD38 Viability Normalized Result (cmpd/DMSO %) at 10 μM (AD38 cells): 91%

SMILES: O=C(NCc1cccc(-c2ccccc2)c1)c1ccc2c(c1)NC(=O)c1ccccc1S2(=O)=O [Compound 565]
- activity at 10 µM (HBV): 1.5%
- AD38 Viability Normalized Result (cmpd/DMSO %) at 10 μM (AD38 cells): 105%

SMILES: NC(=O)c1ccc(-c2ccc(CNC(=O)c3ccc4c(c3)NC(=O)c3ccccc3S4(=O)=O)cc2)cc1 [Compound 765]
- AD38 Viral Load (%) (VL with cmpd/VL in DMSO control) at 10 μM (HBV): 59.4%
- AD38 Viability Normalized Result (cmpd/DMSO %) at 10 μM (AD38 cells): 103%

SMILES: COc1ccc(Cc2cccc(CNC(=O)c3ccc4c(c3)NC(=O)c3ccccc3S4(=O)=O)c2)cc1 [Compound 809-A, N-(3-(4-methoxybenzyl)benzyl)-11-oxo-10,11-dihydrodibenzo[b,f][1,4]thiazepine-8-carboxamide 5,5-dioxide]
- activity at 10 µM (HBV): 0.6%
- AD38 Viability Normalized Result (cmpd/DMSO %) at 10 μM (AD38 cells): 85%

SMILES: Cl.NCc1ccc(-c2ccc(CNC(=O)c3ccc4c(c3)NC(=O)c3ccccc3S4(=O)=O)cc2)cc1 [Compound 652, N-((4′-(aminomethyl)-[1,1′-biphenyl]-4-yl)methyl)-11-oxo-10,11-dihydrodibenzo[b,f][1,4]thiazepine-8-carboxamide 5,5-dioxide hydrochloride]
- activity at 10 µM (HBV): 36.4%
- AD38 Viability Normalized Result (cmpd/DMSO %) at 10 μM (AD38 cells): 86%

SMILES: COc1ccc(Cc2cccc(CNC(=O)c3ccc4c(c3)NC(=O)c3ccccc3O4)c2)cc1 [Compound 741-A]
- activity at 10 µM (HBV): 42.4%
- AD38 Viability Normalized Result (cmpd/DMSO %) at 10 μM (AD38 cells): 89%

SMILES: N#Cc1cccc(-c2ccc(CNC(=O)c3ccc4c(c3)NC(=O)c3ccccc3S4(=O)=O)cc2)c1 [Compound 676-A]
- activity at 10 µM (HBV): 5.9%
- AD38 Viability Normalized Result (cmpd/DMSO %) at 10 μM (AD38 cells): 98%

SMILES: O=C(NCc1cccc(Oc2ccc(O)cc2)c1)c1ccc2c(c1)NC(=O)c1ccccc1O2 [Compound 745, N-(3-(4-hydroxyphenoxy)benzyl)-11-oxo-10,11-dihydrodibenzo[b,f][1,4]oxazepine-8-carboxamide]
- activity at 10 µM (HBV): 38.7%
- AD38 Viability Normalized Result (cmpd/DMSO %) at 10 μM (AD38 cells): 108%

SMILES: C[C@@H](NC(=O)c1ccc2c(c1)NC(=O)c1ccccc1S2(=O)=O)c1ccc(-c2ccc(O)cc2)cc1 [Compound 643]
- activity at 10 µM (HBV): 30%
- AD38 Viability Normalized Result (cmpd/DMSO %) at 10 μM (AD38 cells): 104%

SMILES: O=C(NCc1ccc(-c2ccc(O)cc2)cc1)c1ccc2c(c1)NC(=O)c1ccccc1S2(=O)=O [Compound 638]
- activity at 10 µM (HBV): 8.6%
- AD38 Viability Normalized Result (cmpd/DMSO %) at 10 μM (AD38 cells): 7%

SMILES: O=C(NCc1cccc(Oc2cccc(O)c2)c1)c1ccc2c(c1)NC(=O)c1ccccc1O2 [Compound 744, N-(3-(3-hydroxyphenoxy)benzyl)-11-oxo-10,11-dihydrodibenzo[b,f][1,4]oxazepine-8-carboxamide]
- activity at 10 µM (HBV): 62.9%
- AD38 Viability Normalized Result (cmpd/DMSO %) at 10 μM (AD38 cells): 108%

SMILES: COc1ccc(Oc2cccc(CNC(=O)c3ccc4c(c3)NC(=O)c3ccccc3O4)c2)cc1 [Compound 745-A, N-(3-(4-methoxyphenoxy)benzyl)-11-oxo-10,11-dihydrodibenzo[b,f][1,4]oxazepine-8-carboxamide]
- activity at 10 µM (HBV): 16.1%
- AD38 Viability Normalized Result (cmpd/DMSO %) at 10 μM (AD38 cells): 92%

SMILES: C[C@H](NC(=O)c1ccc2c(c1)NC(=O)c1ccccc1S2(=O)=O)c1ccc(-c2ccc(O)cc2)cc1 [Compound 640]
- activity at 10 µM (HBV): 4.4%
- AD38 Viability Normalized Result (cmpd/DMSO %) at 10 μM (AD38 cells): 1%

SMILES: COc1ccc(Oc2cccc(CNC(=O)c3ccc4c(c3)NC(=O)c3ccccc3S4(=O)=O)c2)cc1 [Compound 811-A, N-(3-(4-methoxyphenoxy)benzyl)-11-oxo-10,11-dihydrodibenzo[b,f][1,4]thiazepine-8-carboxamide 5,5-dioxide]
- activity at 10 µM (HBV): 1.9%
- AD38 Viability Normalized Result (cmpd/DMSO %) at 10 μM (AD38 cells): 86%

SMILES: O=C(NCCc1ccc(-c2ccc(F)cc2)cc1)c1ccc2c(c1)NC(=O)c1ccccc1S2 [Compound 538]
- activity at 10 µM (HBV): 8.1%
- AD38 Viability Normalized Result (cmpd/DMSO %) at 10 μM (AD38 cells): 62%

SMILES: O=C(NCCC(c1ccccc1)N1CCCC1)c1ccc2c(c1)NC(=O)c1ccccc1S2(=O)=O (stereo not shown) [Compound 472]
- activity at 10 µM (HBV): 32.6%
- AD38 Viability Normalized Result (cmpd/DMSO %) at 10 μM (AD38 cells): 105%

SMILES: CN(C)CCOc1ccc(-c2ccc(CNC(=O)c3ccc4c(c3)NC(=O)c3ccccc3S4(=O)=O)cc2)cc1 [Compound 657]
- activity at 10 µM (HBV): 19.4%
- AD38 Viability Normalized Result (cmpd/DMSO %) at 10 μM (AD38 cells): 104%

SMILES: O=C(NCCc1ccc(-c2ccc(F)cc2)cc1)c1ccc2c(c1)NC(=O)c1ccccc1S2(=O)=O [Compound 533]
- activity at 10 µM (HBV): 0.6%
- AD38 Viability Normalized Result (cmpd/DMSO %) at 10 μM (AD38 cells): 3%

SMILES: O=C(NCc1cccc(Oc2cccc(O)c2)c1)c1ccc2c(c1)NC(=O)c1ccccc1S2(=O)=O [Compound 810, N-(3-(3-hydroxyphenoxy)benzyl)-11-oxo-10,11-dihydrodibenzo[b,f][1,4]thiazepine-8-carboxamide 5,5-dioxide]
- activity at 10 µM (HBV): 3.2%
- AD38 Viability Normalized Result (cmpd/DMSO %) at 10 μM (AD38 cells): 93%

SMILES: O=C(NCc1ccc(-c2ccc3[nH]cnc3c2)cc1)c1ccc2c(c1)NC(=O)c1ccccc1S2(=O)=O [Compound 644]
- activity at 10 µM (HBV): 31.2%
- AD38 Viability Normalized Result (cmpd/DMSO %) at 10 μM (AD38 cells): 89%

SMILES: O=C(NCc1ccc(-c2cccc(O)c2)cc1)c1ccc2c(c1)NC(=O)c1ccccc1S2(=O)=O [Compound 639]
- activity at 10 µM (HBV): 4.5%
- AD38 Viability Normalized Result (cmpd/DMSO %) at 10 μM (AD38 cells): 34%

SMILES: O=C(NCc1ccc(-c2ccc3[nH]ccc3c2)cc1)c1ccc2c(c1)NC(=O)c1ccccc1S2(=O)=O [Compound 647]
- activity at 10 µM (HBV): 0.4%
- AD38 Viability Normalized Result (cmpd/DMSO %) at 10 μM (AD38 cells): 102%

SMILES: O=C(NCc1cccc(Sc2ccc(O)cc2)c1)c1ccc2c(c1)NC(=O)c1ccccc1O2 [Compound 743, N-(3-((4-hydroxyphenyl)thio)benzyl)-11-oxo-10,11-dihydrodibenzo[b,f][1,4]oxazepine-8-carboxamide]
- activity at 10 µM (HBV): 6.8%
- AD38 Viability Normalized Result (cmpd/DMSO %) at 10 μM (AD38 cells): 102%

SMILES: O=C(NCc1cccc(-c2cnn[nH]2)c1)c1ccc2c(c1)NC(=O)c1ccccc1S2(=O)=O [Compound 570]
- activity at 10 µM (HBV): 8.7%
- AD38 Viability Normalized Result (cmpd/DMSO %) at 10 μM (AD38 cells): 112%

SMILES: O=C(NCc1ccc(-c2cncnc2)cc1)c1ccc2c(c1)NC(=O)c1ccccc1S2 [Compound 537]
- activity at 10 µM (HBV): 51.5%
- AD38 Viability Normalized Result (cmpd/DMSO %) at 10 μM (AD38 cells): 100%

SMILES: O=C(NCc1ccc(-c2ccc3[nH]ccc3c2)cc1)c1ccc2c(c1)NC(=O)c1ccccc1O2 [Compound 730]
- activity at 10 µM (HBV): 24.2%
- AD38 Viability Normalized Result (cmpd/DMSO %) at 10 μM (AD38 cells): 101%

SMILES: O=C(NCc1ccc(-c2ccc(O)cc2)c(Cl)c1)c1ccc2c(c1)NC(=O)c1ccccc1O2 [Compound 721]
- activity at 10 µM (HBV): 9.7%
- AD38 Viability Normalized Result (cmpd/DMSO %) at 10 μM (AD38 cells): 29%

SMILES: O=C(NCc1cccc(-c2ccc(F)cc2)c1)c1ccc2c(c1)NC(=O)c1ccccc1S2(=O)=O [Compound 566]
- activity at 10 µM (HBV): 0.6%
- AD38 Viability Normalized Result (cmpd/DMSO %) at 10 μM (AD38 cells): 95%

SMILES: COc1ccc(-c2ccc(CNC(=O)c3ccc4c(c3)NC(=O)c3ccccc3S4(=O)=O)cc2)cn1 [Compound 775, N-(4-(6-methoxypyridin-3-yl)benzyl)-11-oxo-10,11-dihydrodibenzo[b,f][1,4]thiazepine-8-carboxamide 5,5-dioxide]
- activity at 10 µM (HBV): 2.6%
- AD38 Viability Normalized Result (cmpd/DMSO %) at 10 μM (AD38 cells): 93%

SMILES: COc1cccc(Oc2cccc(CNC(=O)c3ccc4c(c3)NC(=O)c3ccccc3S4(=O)=O)c2)c1 [Compound 810-A, N-(3-(3-methoxyphenoxy)benzyl)-11-oxo-10,11-dihydrodibenzo[b,f][1, 4]thiazepine-8-carboxamide 5,5-dioxide]
- activity at 10 µM (HBV): 1.1%
- AD38 Viability Normalized Result (cmpd/DMSO %) at 10 μM (AD38 cells): 90%

SMILES: COc1cccc(Oc2cccc(CNC(=O)c3ccc4c(c3)NC(=O)c3ccccc3O4)c2)c1 [Compound 744-A, N-(3-(3-methoxyphenoxy)benzyl)-11-oxo-10,11-dihydrodibenzo[b,f][1,4]oxazepine-8-carboxamide]
- activity at 10 µM (HBV): 8.9%
- AD38 Viability Normalized Result (cmpd/DMSO %) at 10 μM (AD38 cells): 103%

SMILES: O=C(NCc1ccc(-c2ccc(O)cc2Cl)cc1)c1ccc2c(c1)NC(=O)c1ccccc1O2 [Compound 722]
- activity at 10 µM (HBV): 8.8%
- AD38 Viability Normalized Result (cmpd/DMSO %) at 10 μM (AD38 cells): 29%

SMILES: CN(C)S(=O)(=O)c1ccc(CCNC(=O)c2ccc3c(c2)NC(=O)c2ccccc2N3)cc1 [Compound 510]
- activity at 10 µM (HBV): 21.4%
- AD38 Viability Normalized Result (cmpd/DMSO %) at 10 μM (AD38 cells): 92%

SMILES: COc1cccc(Sc2cccc(CNC(=O)c3ccc4c(c3)NC(=O)c3ccccc3S4(=O)=O)c2)c1 [Compound 812-A, N-(3-((3-methoxyphenyl)thio)benzyl)-11-oxo-10,11-dihydrodibenzo[b,f][1,4]thiazepine-8-carboxamide 5,5-dioxide]
- activity at 10 µM (HBV): 1.4%
- AD38 Viability Normalized Result (cmpd/DMSO %) at 10 μM (AD38 cells): 66%

SMILES: O=C(NCc1ccc(-n2nccn2)cc1)c1ccc2c(c1)NC(=O)c1ccccc1S2(=O)=O [Compound 567]
- activity at 10 µM (HBV): 3.3%
- AD38 Viability Normalized Result (cmpd/DMSO %) at 10 μM (AD38 cells): 104%
